Data reported in patent publication US20250074891A1 (Anaxis Pharma Pty Ltd., priority 2021, published 2025).

Key:
Details in all cases: Table 35
[1] = target: RIP1 (Homo sapiens (Human), UniProt Q13546); assay: KINOMEscan binding assay, RIP1
[2] = target: RIP3 (Homo sapiens (Human), UniProt Q9Y572); assay: KINOMEscan binding assay, RIP3
Procedure: (§1) Kinase assays. For most assays, kinase-tagged T7 phage strains were grown in parallel in 24-well blocks in an E. coli host derived from the BL21 strain. E. coli were grown to log-phase and infected with T7 phage from a frozen stock (multiplicity of infection=0.4) and incubated with shaking at 32° C. until lysis (90-150 minutes).
(§2) The Hill Slope was set to −1.

[3] = target: MLKL (full length) (Homo sapiens (Human), UniProt Q8NB16); assay: KINOMEscan binding assay, MLKL (full length)
Sequence of MLKL (full length) (Q8NB16 whole entry): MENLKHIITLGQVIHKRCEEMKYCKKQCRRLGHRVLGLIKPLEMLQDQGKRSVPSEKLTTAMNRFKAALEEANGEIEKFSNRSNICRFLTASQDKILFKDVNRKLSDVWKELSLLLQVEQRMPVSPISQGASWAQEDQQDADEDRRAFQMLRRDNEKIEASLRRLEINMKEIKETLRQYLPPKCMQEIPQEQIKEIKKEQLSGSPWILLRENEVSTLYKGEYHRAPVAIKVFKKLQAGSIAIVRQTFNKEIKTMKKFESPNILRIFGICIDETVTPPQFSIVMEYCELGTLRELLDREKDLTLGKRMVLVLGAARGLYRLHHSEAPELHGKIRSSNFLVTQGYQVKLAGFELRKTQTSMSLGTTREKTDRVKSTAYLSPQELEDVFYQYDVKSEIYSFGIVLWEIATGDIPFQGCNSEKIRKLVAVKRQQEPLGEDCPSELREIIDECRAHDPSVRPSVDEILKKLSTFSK
Procedure: as §1, §2

Sequence of RIP1 (Q13546 whole entry): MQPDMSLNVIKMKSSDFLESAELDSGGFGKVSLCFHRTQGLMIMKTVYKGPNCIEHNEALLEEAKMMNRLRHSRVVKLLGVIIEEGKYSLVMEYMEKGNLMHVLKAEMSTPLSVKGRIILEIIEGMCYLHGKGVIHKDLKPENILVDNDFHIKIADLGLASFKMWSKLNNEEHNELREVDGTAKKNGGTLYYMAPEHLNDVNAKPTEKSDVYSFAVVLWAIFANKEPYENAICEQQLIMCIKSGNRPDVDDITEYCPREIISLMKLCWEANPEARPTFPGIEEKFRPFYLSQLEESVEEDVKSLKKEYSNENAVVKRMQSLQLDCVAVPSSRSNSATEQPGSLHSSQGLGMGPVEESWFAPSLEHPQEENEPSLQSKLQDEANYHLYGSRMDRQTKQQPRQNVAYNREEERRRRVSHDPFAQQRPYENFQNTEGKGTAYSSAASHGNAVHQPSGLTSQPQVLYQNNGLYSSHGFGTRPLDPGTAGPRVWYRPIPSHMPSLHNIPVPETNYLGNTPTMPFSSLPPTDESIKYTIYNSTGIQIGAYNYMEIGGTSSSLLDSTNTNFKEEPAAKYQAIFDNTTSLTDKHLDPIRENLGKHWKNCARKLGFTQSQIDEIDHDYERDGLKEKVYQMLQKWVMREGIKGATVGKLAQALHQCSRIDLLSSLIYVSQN
Sequence of RIP3 (Q9Y572 whole entry): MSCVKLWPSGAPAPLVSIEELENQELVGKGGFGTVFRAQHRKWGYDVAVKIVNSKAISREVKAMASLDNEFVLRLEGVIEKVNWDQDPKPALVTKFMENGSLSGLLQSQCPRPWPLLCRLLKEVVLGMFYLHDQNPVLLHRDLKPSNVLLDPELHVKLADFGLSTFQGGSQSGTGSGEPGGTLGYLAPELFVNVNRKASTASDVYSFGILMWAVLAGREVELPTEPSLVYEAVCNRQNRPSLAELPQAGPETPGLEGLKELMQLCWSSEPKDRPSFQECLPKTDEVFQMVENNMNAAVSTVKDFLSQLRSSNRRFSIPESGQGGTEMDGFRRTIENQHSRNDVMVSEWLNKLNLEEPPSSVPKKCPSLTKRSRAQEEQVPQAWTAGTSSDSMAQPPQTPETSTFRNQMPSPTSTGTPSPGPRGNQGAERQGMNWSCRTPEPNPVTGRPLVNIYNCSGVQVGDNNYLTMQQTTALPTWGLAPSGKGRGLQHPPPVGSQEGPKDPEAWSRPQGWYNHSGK

For `NC(=O)c1c(-c2ccc(NS(=O)(=O)CCC(F)(F)F)c(OCc3ccc(F)cc3)c2)n[nH]c1Nc1cnccn1` [Compound 184, 3-(3-((4-fluorobenzyl)oxy)-4-((3,3,3-trifluoropropyl)sulfonamido)phenyl)-5-(pyrazin-2-ylamino)-1H-pyrazole-4-carboxamide], the Kd [1] was greater than 30 µM, the Kd [2] was greater than 30 µM and the Kd [3] was less than 0.01 µM.
Work on `C[C@H](Oc1cc(-c2n[nH]c(Nc3ccccn3)c2C(N)=O)ccc1NS(=O)(=O)CC(F)(F)F)c1ccc(F)cc1` [Compound 154, (S)-3-(3-(1-(4-fluorophenyl)ethoxy)-4-((2,2,2-trifluoroethyl)sulfonamido)phenyl)-5-(pyridine-2-ylamino)-1H-pyrazole-4-carboxamide] yielded a Kd [1] greater than 30 µM, a Kd [2] greater than 30 µM and a Kd [3] of less than 0.01 µM.
`CCS(=O)(=O)Nc1ccc(-c2n[nH]c(Nc3cnccn3)c2C(N)=O)cc1` [Compound 108, 3-(4-(ethylsulfonamido)phenyl)-5-(pyrazin-2-ylamino)-1H-pyrazole-4-carboxamide] was tested, and the Kd [1] was greater than 30 µM, the Kd [2] was greater than 30 µM and the Kd [3] was less than 0.01 µM.
In the case of `C[C@H](Oc1cc(-c2n[nH]c(Nc3cnccn3)c2C(N)=O)ccc1NS(=O)(=O)C(F)F)c1ccc(F)cc1` [Compound 223, 3-[4-(difluoromethanesulfonamido)-3-[(1S)-1-(4-fluorophenyl)ethoxy]phenyl]-5-[(pyrazin-2-yl)amino]-1H-pyrazole-4-carboxamide], the Kd [1] is reported as greater than 30 µM, the Kd [2] is reported as greater than 30 µM and the Kd [3] is reported as less than 0.01 µM.
`NC(=O)c1c(-c2ccc(NS(=O)(=O)CC(F)(F)F)c(OCc3ccc(F)cc3)c2)n[nH]c1Nc1ccnc(C(F)(F)F)n1` [Compound 186, 3-(3-((4-fluorobenzyl)oxy)-4-((2,2,2-trifluoroethyl)sulfonamido)phenyl)-5-((2-(trifluoromethyl)pyrimidin-4-yl)amino)-1H-pyrazole-4-carboxamide] was tested, and the Kd [1] was greater than 30 µM, the Kd [2] was greater than 30 µM and the Kd [3] was less than 0.01 µM.
In the case of `NC(=O)c1c(-c2ccc(NS(=O)(=O)CC(F)(F)F)c(OC3(c4ccccc4)CC3)c2)n[nH]c1Nc1cnccn1` [Compound 161, 3-(3-(1-phenylcyclopropoxy)-4-((2,2,2-trifluoroethyl)sulfonamido)phenyl)-5-(pyrazin-2-ylamino)-1H-pyrazole-4-carboxamide], the Kd [1] is reported as greater than 30 µM, the Kd [2] is reported as greater than 30 µM and the Kd [3] is reported as less than 0.01 µM.
For `NC(=O)c1c(-c2ccc(NS(=O)(=O)C(F)F)cc2)n[nH]c1Nc1ccc(C(F)(F)F)cn1` [Compound 145, 3-(4-((difluoromethyl)sulfonamido)phenyl)-5-((5-(trifluoromethyl)pyridine-2-yl)amino)-1H-pyrazole-4-carboxamide], the Kd [1] was greater than 30 µM, the Kd [2] was greater than 30 µM and the Kd [3] was less than 0.01 µM.
Compound `CCS(=O)(=O)Nc1ccc(-c2n[nH]c(Nc3cnccn3)c2C(N)=O)cc1OCc1cccc(Cl)c1` [Compound 41, 3-(3-((3-chlorobenzyl)oxy)-4-(ethylsulfonamido)phenyl)-5-(pyrazin-2-ylamino)-1H-pyrazole-4-carboxamide] has a Kd [1] greater than 30 µM, a Kd [2] greater than 30 µM and a Kd [3] of less than 0.01 µM.
For `CCS(=O)(=O)Nc1ccc(-c2n[nH]c(Nc3cc(C)on3)c2C(N)=O)cc1O[C@@H](C)c1ccc(F)cc1` [Compound 317, (S)-3-(4-(ethylsulfonamido)-3-(1-(4-fluorophenyl)ethoxy)phenyl)-5-((5-methylisoxazol-3-yl)amino)-1H-pyrazole-4-carboxamide], the Kd [1] was greater than 30 µM, the Kd [2] was greater than 30 µM and the Kd [3] was less than 0.01 µM.
`NC(=O)c1c(-c2ccc(NS(=O)(=O)C(F)F)c(OCc3ccc(Cl)cc3)c2)n[nH]c1Nc1cnc(C(F)(F)F)cn1` [Compound 235, 3-(3-((4-chlorobenzyl)oxy)-4-((difluoromethyl)sulfonamido)phenyl)-5-((5-(trifluoromethyl)pyrazin-2-yl)amino)-1H-pyrazole-4-carboxamide] gave a Kd [1] greater than 30 µM, a Kd [2] greater than 30 µM and a Kd [3] of less than 0.01 µM.
`C[C@H](Oc1cc(-c2n[nH]c(Nc3cnc(C4CC4)cn3)c2C(N)=O)ccc1NS(=O)(=O)C(F)F)c1ccc(F)cc1` [Compound 316, (S)-5-((5-cyclopropylpyrazin-2-yl)amino)-3-(4-((difluoromethyl)sulfonamido)-3-(1-(4-fluorophenyl)ethoxy)phenyl)-1H-pyrazole-4-carboxamide] showed a Kd [1] greater than 30 µM, a Kd [2] greater than 30 µM and a Kd [3] of less than 0.01 µM.
`Cc1nn(C)cc1Nc1[nH]nc(-c2ccc(NS(=O)(=O)C(F)F)c(O[C@@H](C)c3ccc(F)cc3)c2)c1C(N)=O` [Compound 270, (S)-3-(4-((difluoromethyl)sulfonamido)-3-(1-(4-fluorophenyl)ethoxy)phenyl)-5-((1,3-dimethyl-1H-pyrazol-4-yl)amino)-1H-pyrazole-4-carboxamide] was tested, and the Kd [1] was greater than 30 µM, the Kd [2] was greater than 30 µM and the Kd [3] was less than 0.01 µM.
`C[C@H](Oc1cc(-c2n[nH]c(Nc3cnccn3)c2C(N)=O)ccc1NS(=O)(=O)CC(F)(F)F)c1ccc(F)cc1` [Compound 164, (S)-3-(3-(1-(4-fluorophenyl)ethoxy)-4-((2,2,2-trifluoroethyl)sulfonamido)phenyl)-5-(pyrazin-2-ylamino)-1H-pyrazole-4-carboxamide] gave a Kd [1] greater than 30 µM, a Kd [2] greater than 30 µM and a Kd [3] of less than 0.01 µM.
`NC(=O)c1c(-c2ccc(NS(=O)(=O)CC(F)(F)F)c(OCc3ccc(F)cn3)c2)n[nH]c1Nc1ccccn1` [Compound 240, 3-{3-[(5-fluoropyridin-2-yl)methoxy]-4-(2,2,2-trifluoroethanesulfonamido)phenyl}-5-[(pyridin-2-yl)amino]-1H-pyrazole-4-carboxamide] showed a Kd [1] greater than 30 µM, a Kd [2] greater than 30 µM and a Kd [3] of less than 0.01 µM.
For `C[C@H](Oc1cc(-c2n[nH]c(Nc3cc(C4CCC4)on3)c2C(N)=O)ccc1NS(=O)(=O)C(F)F)c1ccc(F)cc1` [Compound 281, (S)-5-((5-cyclobutylisoxazol-3-yl)amino)-3-(4-((difluoromethyl)sulfonamido)-3-(1-(4-fluorophenyl)ethoxy)phenyl)-1H-pyrazole-4-carboxamide], the Kd [1] was greater than 30 µM, the Kd [2] was greater than 30 µM and the Kd [3] was less than 0.01 µM.
With `Cc1cnc(Nc2[nH]nc(-c3ccc(NS(=O)(=O)CCC(F)(F)F)c(OCc4ccc(F)cc4)c3)c2C(N)=O)cn1` [Compound 183, 3-(3-((4-fluorobenzyl)oxy)-4-((3,3,3-trifluoropropyl)sulfonamido)phenyl)-5-((5-methylpyrazin-2-yl)amino)-1H-pyrazole-4-carboxamide] the Kd [1] was greater than 30 µM, the Kd [2] was greater than 30 µM and the Kd [3] was less than 0.01 µM.
In the case of `CCS(=O)(=O)Nc1ccc(-c2n[nH]c(Nc3cnccn3)c2C(N)=O)cc1OCc1cccc(F)c1` [Compound 26, 3-(4-(ethylsulfonamido)-3-((3-fluorobenzyl)oxy)phenyl)-5-(pyrazin-2-ylamino)-1H-pyrazole-4-carboxamide], the Kd [1] is reported as greater than 30 µM, the Kd [2] is reported as greater than 30 µM and the Kd [3] is reported as less than 0.01 µM.
Work on `CCS(=O)(=O)Nc1ccc(-c2n[nH]c(Nc3cnccn3)c2C(N)=O)cc1OCCc1cccc(F)c1` [Compound 219, 3-(4-(ethylsulfonamido)-3-(3-fluorophenethoxy)phenyl)-5-(pyrazin-2-ylamino)-1H-pyrazole-4-carboxamide] yielded a Kd [1] greater than 30 µM, a Kd [2] greater than 30 µM and a Kd [3] of less than 0.01 µM.
For `C[C@H](Oc1cc(-c2n[nH]c(Nc3cc(C(C)(C)F)on3)c2C(N)=O)ccc1NS(=O)(=O)C(F)F)c1ccc(F)cc1` [Compound 297, (S)-3-(4-((difluoromethyl)sulfonamido)-3-(1-(4-fluorophenyl)ethoxy)phenyl)-5-((5-(2-fluoropropan-2-yl)isoxazol-3-yl)amino)-1H-pyrazole-4-carboxamide], the Kd [1] was greater than 30 µM, the Kd [2] was greater than 30 µM and the Kd [3] was less than 0.01 µM.
